We go through 2 molecules from patent US20080318954A1, “Compounds” (Cyclacel Limited, priority 2004, published 2008).

Series [1] deals with glycogen synthase activity in HEK293 cells. Nature of the series: Glycogen synthase (GS) assay in HEK293 cells. Format: cell-based, human. As for the experimental part:
(§1) Cells on 10 cm dishes (Human Embryonic Kidney (HEK) 293 cells, L6 rat myocytes, or 3T3 mouse adipocytes) were treated with different concentrations of GSK3-inhibitors or DMSO vehicle for 90 min. Incubation medium was removed and cells were washed with ice-cold phosphate-buffered saline (PBS) prior to lysis on ice in 50 mM HEPES, pH 7.5, 10 mM EDTA, 100 mM NaF, 5 mM DTT, protease inhibitor cocktail (Sigma). After a freeze/thaw cycle the samples are sonicated for 10 sec and centrifuged at 15,000 g for 10 min at 4° C. Lysate supernatants were snap-frozen on liquid nitrogen and stored at −80° C. Lysates were assayed for glycogen synthase activity in buffer (50 mM Tris-HCl, pH 7.8, 20 mM EDTA, 25 mM NaF, 5 mM DTT, 1% glycogen, 0.3 mM UDP-glucose and 0.06 μCi of [^14C]-UDP-glucose in the presence of 0.1 or 10 mM glucose-6-phosphate. The reaction was carried out for 30 min at 30° C. 70 μL of the reaction mixture (total volume 90 μL) were transferred to a GFC 96-well filter plate (bottom sealed with foil), containing 140 μL 96% ethanol. The GFC plate was incubated for 1 h on ice and than washed with 66% ethanol. To each well 100 μL scintillant liquid was added and the radioactivity of the samples was measured using a scintillation counter (Topcount, HP). Data are expressed as -fold increase in glycogen synthase activity ratios over those of control samples.

Series [2] relates to glycogen synthase activity in 3T3 mouse adipocytes. Nature of the series: Glycogen synthase (GS) assay in 3T3 mouse adipocytes. Format: cell-based. To be noted: 3T3 cells, 40 mM. Here is the method: Mouse pre-adipocytes 3T3-F442A were seeded at 9×10^5 cells per 10 cm dish in DMEM 10% FCS, containing penicillin/streptomycin. When 90% confluent, the same medium was supplemented with 1 μg/mL insulin. After 3-5 days (when most cells were differentiated) insulin was removed and 4 days later the cells were ready to use.
as §1

Series [3] has as its system β-catenin-LEF/TCF transcriptional activity in HEK293 cells. Nature of the series: β-Catenin-LEF/TCF regulated reporter gene assay. To be noted: LiCl. It is filed as cell-based, human. From the text:
Furthermore, the effect of compound XIV on the β-catenin-dependent transcriptional activity, as measured in a luciferase based reporter gene assay, was studied.
HEK293 cells were transfected with either β-catenin-LEF/TCF-sensitive or β-catenin-LEF/TCF-insensitive reporter vector (Upstate Biotechnology, Inc.) using Lipofectamine Plus reagent (GibcoBRL) according to the manufacturer's instructions. The next day, cells were trypsinized, washed into serum-free medium, counted and seeded at 40,000 cells per well in a 96-well plate. Subsequent to cell attachment, LiCl or GSK-3 inhibitor compound were added to the medium to the required concentrations. Control cells were DMSO vehicle treated. 16 h after inhibitor addition, cells were analyzed for luciferase activity using the Steady-Glo Luciferase assay system (Promega) according to the manufacturer's instructions.
(In general: A reporter such as luciferase makes a cellular process visible.)

In the next series the target is T1, GSK-3β (Oryctolagus cuniculus, UniProt G1T8E2).
T1 construct: isolated from a strain of E. coli that carries a clone expressing GSK-3β derived from a rabbit skeletal muscle cDNA library [34]
T1 sequence (G1T8E2 1-432): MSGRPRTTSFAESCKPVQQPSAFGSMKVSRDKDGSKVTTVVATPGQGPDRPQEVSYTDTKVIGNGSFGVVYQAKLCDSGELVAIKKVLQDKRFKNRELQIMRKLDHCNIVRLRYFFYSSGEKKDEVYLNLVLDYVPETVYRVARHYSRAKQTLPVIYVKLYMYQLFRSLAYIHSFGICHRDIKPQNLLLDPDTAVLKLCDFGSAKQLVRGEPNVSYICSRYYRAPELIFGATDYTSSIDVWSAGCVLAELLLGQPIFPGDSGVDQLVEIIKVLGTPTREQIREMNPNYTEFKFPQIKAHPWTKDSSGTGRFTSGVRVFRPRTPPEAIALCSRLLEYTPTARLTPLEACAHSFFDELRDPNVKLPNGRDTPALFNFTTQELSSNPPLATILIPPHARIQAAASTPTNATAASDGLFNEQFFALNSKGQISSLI
Put plainly: GSK-3β kinase assay. As to conditions: read-out: Kinase inhibition IC50 GSK3β. Format: biochemical, rabbit. Here is the method: GSK-3 was obtained from New England Biolabs (UK) Ltd., Hitchin, Herts. The recombinant enzyme was isolated from a strain of E. coli that carries a clone expressing GSK-3β derived from a rabbit skeletal muscle cDNA library. Inhibition of GSK-3 function was assessed by measurement of phosphorylation of CREB phosphopeptide KRREILSRRPpSYR in the presence of test compounds. Using a 96-well assay format, GSK3 (7.5 U) was incubated for 30 min at 30° C. in a total volume of 25 μL in 20 mM MOPS pH 7.2, 25 mM β-glycerophosphate, 5 mM EGTA, 1 mM DTT, 1 mM […], 40 μM CREB peptide, 15 mM MgCl2 and 100 μM ATP (containing 0.25 μCi [γ-^32P]-ATP) in the presence of varying concentrations of test compound. The samples were transferred to 96-well p81 filter plates (Whatman Polyfiltronics, Kent, UK), and the plates were washed 4 times with 200 μL/well of 75 mM aq orthophosphoric acid. Scintillation liquid (50 μL) was added to each well, and incorporated radioactivity for each sample was determined using a scintillation counter (TopCount, Packard Instruments, Pangbourne, Berks, UK).

The next series addresses T2, CDK2/cyclin E (Homo sapiens, UniProt P24941).
T2 construct: His6 (N); made in house; host or cells: Sf9 insect cells (baculovirus)
Put plainly: CDK/cyclin kinase assay, CDK2/cyclin E. It is filed as biochemical. As to conditions: primary screening at 1 μM. Here is the method: (§2) CDK4/cyclin D1, CDK1/cyclin B, CDK2/cyclin E, CDK2/cyclin A, CDK9/cyclin T1 and CDK7/cyclin H, all with a His6 tag on the N-terminus, were expressed in Sf9 insect cells using an appropriate baculovirus construct. Sf9 culture (1.6×10^6 cells/mL) was infected (MOI of 3) for two days. The cells were harvested by low speed centrifugation and the protein was purified from the insect cell pellet by metal affinity chromatography. In short: the insect cell pellet was lysed in Buffer A (10 mM Tris-HCl pH 8.0, 150 mM NaCl, 0.02% NP-40, 5 mM β-mercaptoethanol, 20 mM NaF, 1 mM Na3VO4, and Sigma Protease Inhibitor Cocktail) by sonication. The soluble fraction was cleared by centrifugation and loaded onto Ni-NTA-Agarose (Qiagen). Non-bound protein was washed off with 300 mM NaCl, 5-15 mM imidazole in buffer A and the bound protein was eluted with buffer A supplemented with 250 mM imidazole. The purified proteins were extensively dialyzed against storage buffer (20 mM HEPES pH 7.4, 50 mM NaCl, 2 mM DTT, 1 mM EDTA, 1 mM EGTA, 0.02% NP-40, 10% v/v glycerol) and stored at −70° C.
(§3) Compounds were investigated for their CDK2/cyclin E, CDK2/cyclin A, CDK1/cyclin B, and CDK4/cyclin D1 inhibitory activity. His6-tagged recombinant human cyclin-dependent kinases CDK1/cyclin B1, CDK2/cyclin E, CDK2/cyclin A, and CDK4 were expressed in sf9 insect cells using a baculovirus expression system. Recombinant cyclin D1 was expressed in E. coli. Proteins were purified by metal chelate affinity chromatography to greater than 90% homogeneity. Kinase assays were performed in 96-well plates using recombinant CDK/cyclins. Assays were performed in assay buffer (25 mM β-glycerophosphate, 20 mM MOPS, 5 mM EGTA, 1 mM DTT, 1 mM […], pH 7.4), into which were added 2-4 μg of active enzyme with appropriate substrates (purified histone H1 for CDK1 and CDK2, recombinant GST-retinoblastoma protein (residues 773-928) for CDK4). The reaction was initiated by addition of Mg/ATP mix (15 mM MgCl2+100 μM ATP with 30-50 kBq per well of [γ-^32P]-ATP) and mixtures incubated for 10-45 min, as required, at 30° C. Reactions were stopped on ice, followed by filtration through p81 or GF/C filterplates (for CDK4) (Whatman Polyfiltronics, Kent, UK). After washing 3 times with 75 mM aq orthophosphoric acid, plates were dried, scintillant added and incorporated radioactivity measured in a scintillation counter (TopCount, Packard Instruments, Pangbourne, Berks, UK). Compounds for kinase assays were made up as 10 mM stocks in DMSO and diluted into 10% DMSO in assay buffer. Data was analysed using curve-fitting software (GraphPad Prism version 3.00 for Windows, GraphPad Software, San Diego Calif. USA) to determine IC50 values (concentration of test compound which inhibits kinase activity by 50%).

A further series has as its target T3, CDK2/cyclin A (Homo sapiens, UniProt P24941).
T3 construct: His6 (N); made in house; host or cells: Sf9 insect cells (baculovirus)
Put plainly: CDK/cyclin kinase assay, CDK2/cyclin A. It is filed as biochemical. As to conditions: primary screening at 1 μM. Here is the method:
as §2, §3

The next series concerns the target T4, CDK1/cyclin B1 (Homo sapiens, UniProt P06493).
T4 construct: His6 (N); made in house; host or cells: Sf9 insect cells (baculovirus)
Nature of the series: CDK/cyclin kinase assay, CDK1/cyclin B1. Format: biochemical. As to conditions: primary screening at 1 μM. Here is the method:
as §2, §3

The target in another series is T5, CDK4/cyclin D1 (Homo sapiens, UniProt P11802).
T5 construct: His6 (N); made in house; host or cells: CDK4: Sf9 insect cells (baculovirus); Cyclin D1: E. coli, Sf9
T5 sequence (P11802 whole entry): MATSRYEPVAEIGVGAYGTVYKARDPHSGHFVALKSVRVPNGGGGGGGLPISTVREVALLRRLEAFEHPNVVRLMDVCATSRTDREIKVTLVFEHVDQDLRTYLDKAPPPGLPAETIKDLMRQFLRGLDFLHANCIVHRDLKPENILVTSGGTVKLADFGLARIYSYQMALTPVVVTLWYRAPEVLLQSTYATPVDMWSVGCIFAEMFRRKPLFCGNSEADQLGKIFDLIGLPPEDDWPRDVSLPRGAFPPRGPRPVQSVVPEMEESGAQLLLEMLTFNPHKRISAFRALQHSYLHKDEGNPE
T5 sequence (P24385 whole entry partner): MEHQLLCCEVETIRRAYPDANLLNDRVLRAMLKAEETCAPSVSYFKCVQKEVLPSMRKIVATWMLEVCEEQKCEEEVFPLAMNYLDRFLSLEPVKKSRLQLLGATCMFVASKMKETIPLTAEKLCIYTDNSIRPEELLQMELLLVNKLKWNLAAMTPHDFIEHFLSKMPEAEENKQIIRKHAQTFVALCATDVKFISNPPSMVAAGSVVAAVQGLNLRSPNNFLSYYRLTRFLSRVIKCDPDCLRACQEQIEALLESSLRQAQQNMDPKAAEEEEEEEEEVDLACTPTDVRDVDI
Put plainly: CDK/cyclin kinase assay, CDK4/cyclin D1. Format: biochemical. As to conditions: primary screening at 1 μM. As for the experimental part:
as §2, §3

T4 sequence (P06493 whole entry): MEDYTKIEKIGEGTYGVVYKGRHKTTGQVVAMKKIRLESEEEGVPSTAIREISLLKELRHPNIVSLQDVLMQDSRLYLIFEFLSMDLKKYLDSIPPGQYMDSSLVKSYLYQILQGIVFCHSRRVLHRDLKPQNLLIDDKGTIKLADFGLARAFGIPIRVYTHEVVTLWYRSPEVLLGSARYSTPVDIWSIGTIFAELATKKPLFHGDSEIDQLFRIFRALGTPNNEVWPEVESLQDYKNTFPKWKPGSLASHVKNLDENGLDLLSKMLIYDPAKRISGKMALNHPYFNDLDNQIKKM
T4 sequence (P14635 whole entry partner): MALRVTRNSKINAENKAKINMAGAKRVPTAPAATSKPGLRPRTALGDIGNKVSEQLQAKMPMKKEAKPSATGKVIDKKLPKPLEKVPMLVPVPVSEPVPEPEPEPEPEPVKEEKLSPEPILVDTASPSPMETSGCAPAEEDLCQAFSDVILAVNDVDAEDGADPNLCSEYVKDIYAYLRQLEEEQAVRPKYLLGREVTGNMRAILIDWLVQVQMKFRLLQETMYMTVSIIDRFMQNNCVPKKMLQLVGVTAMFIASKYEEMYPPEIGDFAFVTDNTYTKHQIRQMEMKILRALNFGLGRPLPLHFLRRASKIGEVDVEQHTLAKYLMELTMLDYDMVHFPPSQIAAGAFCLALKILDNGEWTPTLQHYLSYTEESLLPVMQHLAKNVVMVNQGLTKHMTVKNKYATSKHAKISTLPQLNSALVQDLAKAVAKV

`[Cl-].[Li+]` [LiCl, reference compound]: the “Fold induction of GS activity” value is on record as 3.7 fold in series [1] (HEK293 cells, 40 mM) and 2 fold in series [2]. Moreover, in series [3], the β-catenin-dependent luciferase activity entry is listed as “massive induction”.

As a reminder, the IC50 is the midpoint of a concentration-inhibition curve. A word on the inhibition: it is how much of the control response was suppressed. Usually fold induction stands for the signal under treatment as a multiple of the control signal. `Cc1sc(-c2ccnc(Nc3ccc(Cl)cc3)c2)nc1O` [XXII, 2-[2-(4-Chloro-phenylamino)-pyridin-4-yl]-5-methyl-thiazol-4-ol]: the IC50 at GSK-3β came out at 470 nM. Moreover, the inhibition at 1 µM against CDK2/cyclin E, on CDK2/cyclin A, against CDK1/cyclin B1 and against CDK4/cyclin D1 was less than 50% in each case. Further, the fold induction at 5 µM in series [1] (Homo sapiens, In HEK293 cells at [compound] = 5 μM (Table 2)) stood at 1.5 ± 0.4.
